Source: publication PMC5867665, “Targeting Multiple Effector Pathways in Pancreatic Ductal Adenocarcinoma with a G-Quadruplex-Binding Small Molecule” (Journal of Medicinal Chemistry, 2018)

What was measured:
PDAC MIA PaCa-2 cells = assay: 96 h SRB growth inhibition assay, MIA PaCa-2; assay type: cell-based, human; conditions: 96 h SRB IC50
Method: Compounds were screened with a 96 h SRB (sulforhodamine B) assay for their antiproliferative activity in a panel of human cancer cell lines comprising lung adenocarcinoma (A549), breast adenocarcinoma (MCF7), and PDAC (MIA PaCa-2 and PANC-1) cell lines, as well as a fetal lung fibroblast-like nononcogenic control cell line (WI-38) (Figure 1f). […] Gemcitabine is also active in these lines at low nanomolar levels, although less so in MIA PaCa-2 (IC50 19 ± 5 nM) and more so in BX-PC3 cells (6 ± 2 nM).
All cell lines were purchased from ATCC and maintained in appropriate medium supplemented with 10% fetal bovine serum (Invitrogen, UK), 2 mM L-glutamine (Invitrogen, Netherlands), and other components as specified by the suppliers. Cell lines were maintained at 37 °C, 5% CO2, and routinely passaged. Drugs were dissolved in H2O and filtered through 0.22 μm pore-size filter units (stock 10 mM) before addition to appropriate cell line media. Cellular growth inhibition was measured using the sulforhodamine B (SRB) assay in 96-well plates as described previously.[78] The 50% inhibitory concentrations (IC50) were determined by taking the mean absorbance at 540 nm for each drug concentration expressed as a percentage of the absorbance of untreated control wells.

[1] = Maximum tolerated dose (MTD) study; assay type: in vivo; conditions: dose-escalation MTD study, IV, CD-1 nude mice
Method: To determine if the in vitro activity of CM03 was paralleled in vivo, we explored the activity of CM03 in a mouse xenograft model of PDAC. We have previously reported that the maximum tolerated dosage (MTD) for intravenous (IV) administration of MM41 is 25 mg/kg.[33] CM03 was well tolerated, up to a dosage of 45–50 mg/kg, as judged by a dose-escalation MTD study. A therapeutic schedule of two CM03 intravenous (IV) doses was explored using a subcutaneous MIA PaCa-2 pancreatic tumor xenograft model derived from the human cell line used in the cell growth inhibition studies. A group size of eight CD-1 nude mice was used, and dosing was conducted at 10 and 15 mg/kg, each twice weekly, over a period of 4 weeks (28 days: 8 doses). Two further groups were given either MM41 or gemcitabine at 15 mg/kg and received the same dose regimen. […] IVIS imaging of treated mice was performed by taking account of the intrinsic fluorescence of CM03. […] Thus, in contrast to MM41 and gemcitabine, the higher-dose CM03 treatment results in a statistically significant (p < 0.001) antitumor effect, which persisted long after dosing had ceased, up to the termination of the xenograft experiment (62 days).
The maximum tolerated dose (MTD) studies of MM41 and CM03 were performed in CD-1 nude mice. […] Mice were monitored visually for signs of adverse effects over periods of up to 72 h. […]

hERG = hERG (Homo sapiens, UniProt Q12809); assay: hERG liability (unpublished data)
Chain of hERG (Q12809 whole entry): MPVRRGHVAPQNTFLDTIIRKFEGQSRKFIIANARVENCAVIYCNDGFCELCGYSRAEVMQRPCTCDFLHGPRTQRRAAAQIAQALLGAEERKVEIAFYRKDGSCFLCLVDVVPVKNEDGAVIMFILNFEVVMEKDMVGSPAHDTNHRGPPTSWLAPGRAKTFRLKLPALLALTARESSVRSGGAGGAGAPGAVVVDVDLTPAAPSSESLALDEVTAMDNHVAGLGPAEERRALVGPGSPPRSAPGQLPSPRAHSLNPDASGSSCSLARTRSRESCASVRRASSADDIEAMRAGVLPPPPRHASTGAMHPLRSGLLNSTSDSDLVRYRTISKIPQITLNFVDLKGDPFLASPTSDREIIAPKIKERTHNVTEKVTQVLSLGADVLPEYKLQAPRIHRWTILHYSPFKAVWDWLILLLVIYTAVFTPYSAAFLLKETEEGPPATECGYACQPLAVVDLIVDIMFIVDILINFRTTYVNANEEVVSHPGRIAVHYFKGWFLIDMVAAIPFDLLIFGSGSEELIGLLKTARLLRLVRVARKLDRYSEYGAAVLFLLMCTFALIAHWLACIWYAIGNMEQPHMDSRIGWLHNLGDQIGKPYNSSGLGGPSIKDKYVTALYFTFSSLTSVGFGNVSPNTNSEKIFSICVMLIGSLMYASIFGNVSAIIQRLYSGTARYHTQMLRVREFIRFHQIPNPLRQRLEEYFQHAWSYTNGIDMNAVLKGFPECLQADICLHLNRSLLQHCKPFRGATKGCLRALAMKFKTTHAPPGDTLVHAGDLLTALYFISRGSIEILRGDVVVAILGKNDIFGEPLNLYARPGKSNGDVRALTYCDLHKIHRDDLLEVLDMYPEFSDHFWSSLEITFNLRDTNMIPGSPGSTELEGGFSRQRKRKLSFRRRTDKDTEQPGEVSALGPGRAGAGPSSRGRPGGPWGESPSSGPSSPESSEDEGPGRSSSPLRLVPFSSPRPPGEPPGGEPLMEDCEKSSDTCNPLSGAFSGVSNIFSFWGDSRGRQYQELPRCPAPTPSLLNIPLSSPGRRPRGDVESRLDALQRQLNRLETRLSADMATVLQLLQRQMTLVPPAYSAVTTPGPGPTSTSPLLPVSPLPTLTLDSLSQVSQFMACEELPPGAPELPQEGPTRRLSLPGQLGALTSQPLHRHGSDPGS

SMILES: O=C1c2ccc3c4c(c(NCCN5CCCC5)cc(c24)C(=O)N1CCCN1CCOCC1)C(=O)N(CCCN1CCOCC1)C3=O [CM03, 2,7-bis(3-morpholinopropyl)-4-((2-(pyrrolidin-1-yl)ethyl)amino)benzo[lmn][3,8]phenanthroline-1,3,6,8(2H,7H)-tetraone]
- selectivity for MIA PaCa-2 compared to MCF-7 cells (PDAC MIA PaCa-2 cells): > 20 fold
- well tolerated, up to a dosage of [1]: 45 to 50 mg/kg
- hERG liabilities (hERG): neither MM41 nor CM03 show significant hERG liabilities
